Like-named read-outs stand apart in the source and are kept apart here. Peptide text beside a SMILES is read from it.
What was measured:
[1] = in situ brain perfusion assay; cited from earlier work
NTSR1 = NTSR1 (Homo sapiens, UniProt P30989); format: binding
[2] = competition with [3H]-NT on HT29 cells expressing NTSR1

NTSR1, sequence (P30989 whole entry): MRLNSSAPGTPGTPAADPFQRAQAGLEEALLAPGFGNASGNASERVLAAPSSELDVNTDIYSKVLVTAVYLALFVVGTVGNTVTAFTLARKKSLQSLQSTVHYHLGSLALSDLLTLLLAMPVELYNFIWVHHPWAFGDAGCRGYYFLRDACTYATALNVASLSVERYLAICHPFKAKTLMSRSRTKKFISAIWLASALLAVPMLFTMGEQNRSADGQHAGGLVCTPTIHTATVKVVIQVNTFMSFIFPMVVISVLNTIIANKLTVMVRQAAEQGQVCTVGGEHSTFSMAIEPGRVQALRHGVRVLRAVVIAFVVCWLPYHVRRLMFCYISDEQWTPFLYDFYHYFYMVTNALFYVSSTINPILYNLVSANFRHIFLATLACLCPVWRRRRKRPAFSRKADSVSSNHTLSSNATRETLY

Molecule	transport across the BBB relative to Angiopep-1 (250 nM) [1] [%]	IC50 (NTSR1; [2]) [nM]	IC50 (NTSR1; HT29 cells, [3H]-NT, values in the text (FIGS. 21, 22)) [nM]
T F F Y G G S R G K R N N F R T E E Y (TFFYGGSRGKRNNFRTEEY) [Angiopep-6]	38.5	–	–
CC[C@H](C)[C@H](NC(=O)[C@H](Cc1ccc(O)cc1)NC(=O)[C@@H]1CCCN1C(=O)[C@H](CCCNC(=N)N)NC(=O)[C@H](CCCNC(=N)N)NC(=O)[C@H](CCCCN)NC(C)=O)C(=O)N[C@@H](CC(C)C)C(=O)O [AcLys-NT(8-13)] (Ac-KRRPYIL-OH)	–	1	–
CC[C@H](C)[C@H](NC(=O)[C@@H](Cc1ccc(O)cc1)NC(=O)[C@@H]1CCCN1C(=O)[C@H](CCCNC(=N)N)NC(=O)[C@H](CCCNC(=N)N)NC(=O)C(CCCCNC(=O)CCCCCN1C(=O)CC(SC[C@H](NC(=O)[C@H](Cc2ccc(O)cc2)NC(=O)[C@H](CCC(=O)O)NC(=O)[C@H](CCC(=O)O)NC(=O)[C@@H](NC(=O)[C@H](CCCCN)NC(=O)[C@H](Cc2ccccc2)NC(=O)[C@H](CC(N)=O)NC(=O)[C@H](CC(N)=O)NC(=O)[C@H](CCCNC(=N)N)NC(=O)[C@H](CCCCN)NC(=O)CNC(=O)[C@H](CCCNC(=N)N)NC(=O)[C@H](CO)NC(=O)CNC(=O)CNC(=O)[C@H](Cc2ccc(O)cc2)NC(=O)[C@H](Cc2ccccc2)NC(=O)[C@H](Cc2ccccc2)NC(=O)[C@@H](N)[C@@H](C)O)[C@@H](C)O)C(N)=O)C1=O)NC(C)=O)C(=O)N[C@@H](CC(C)C)C(=O)O (stereo partly drawn) [Ac-Lys-[D-Tyr^11]NT(8-13)-An2]	–	> 100	5390

— patent publication US9914754B2, “Conjugates of neurotensin or neurotensin analogs and uses thereof” (Angiochem Inc., priority 2008, dated 2018)
